Measured values as given in patent US20230119013A1, “N-CYANOPYRROLIDINES WITH ACTIVITY AS USP30 INHIBITORS” (MISSION THERAPEUTICS LIMITED, priority 2020, published 2023).

Columns and labels:
[1] = Brain homogenate free fraction by equilibrium dialysis; type: in vitro ADME; settings: mouse brain homogenate; read-out: Binding Mouse Brain fu, br
Excerpt: (§1) log P: partition coefficient; lipophilicity measurement. log D: distribution co-efficient; lipophilicity measurement. TPSA: topological polar surface area. Turbidimetric solubility: Test compound solution prepared in DMSO diluted into aqueous buffer. Turbidimetry is used as the end-point by measuring absorbance at 620 nm. FaSSIF: simulated intestinal fluid in fasted state measured at pH 6.5. Hep Cl mouse: in vitro hepatocyte clearance in mouse cells. Hep Cl human: in vitro hepatocyte clearance in human cells. Plasma fu,p: The free fraction of a compound in plasma preparation determined by in vitro equilibrium dialysis. It is understood that only unbound (free) compound is capable of engaging with the target. Brain fu,br: The free fraction of a compound in brain homogenate preparation determined by in vitro equilibrium dialysis. It is understood that only unbound (free) compound is capable of engaging with the target. Clu: in vitro clearance. Clu as defined here is the scaled clearance, in turn calculated from the intrinsic clearance. The intrinsic clearance is the predicted clearance due to hepatic metabolic reactions, determined from incubation of a compound in a hepatocyte preparation. […] Cl in vivo clearance: Pharmacokinetic measurement of the volume of plasma (or any matrix) from which a substance is completely removed per unit time.

[2] = Plasma free fraction by equilibrium dialysis; type: in vitro ADME; settings: mouse plasma; read-out: Binding Mouse Plasma fu, p
Excerpt: as §1

[3] = system: cathepsins B, K, L, S and V; assay: Cathepsin IC50, summary over B, K, L, S, V; type: biochemical; settings: K, L; for fold more potent against USP30 than against each of the cathepsins, at a minimum: cathepsins B, S and V; for Selectivity preference for USP30 v cathepsins: range over cathepsins B, S
[4] = system: T1, cathepsins B, K, L, S and V; assay: Cathepsin IC50, summary over B, K, L, S, V; type: biochemical; settings: range over the five cathepsins
T1 construct: Cathepsin IC50 (μM) B, K, L, S, V; other: range over the five cathepsins

[5] = system: P-glycoprotein (MDR1), human; assay: MDR1-MDCK flux assay; type: in vitro ADME; settings: dog; for Papp A→B: value in brackets
Excerpt: The treatment of CNS disorders, including Alzheimer's disease, Parkinson's disease, and other disorders described herein, requires drug molecules to target the brain, which requires adequate penetration of the blood brain barrier. […] The probability that a compound can cross the blood brain barrier may be measured by an in vitro flux assay utilizing a MDR1-MDCK cell monolayer (Madin-Darby Canine Kidney cells transfected with MDR-1 resulting in overexpression of the human efflux transporter P-glycoprotein). Additionally, exposure may also be measured directly in brain and plasma using in vivo animal models.
MDR1-MDCK (Madin-Darby Canine Kidney cell monolayer) (in vitro) flux assay. Cell TE WB: USP30 endogenous cellular target engagement western blot (WB) assay. Assays the activity of compounds against USP30 in cells using an irreversible activity probe to monitor USP30 activity. TE ex vivo: USP30 kidney tissue target engagement assay. Kp u,u is the ratio of unbound drug in brain to unbound drug in plasma and may be indicative of potential for treating peripheral and/or CNS indications.

Turbidimetric solubility = type: physicochemical; settings: aqueous buffer, kinetic from dmso stock
Excerpt: as §1

[6] = system: T2, USP2, USP10, USP16, USP21, USP22, USP25, USP28; assay: DUB IC50, seven DUBs; type: biochemical; settings: range over the seven DUBs
T2 construct: DUB IC50 (μM) USP2, USP10, USP16, USP21, USP22, USP25, USP28; other: range over the seven DUBs

[7] = system: USP2, USP10, USP16, USP21, USP22, USP25, USP28; assay: DUB IC50, seven DUBs; type: biochemical; settings: range over the seven DUBs
Cathepsin V = Cathepsin V (Homo sapiens, UniProt O60911); assay: Cathepsin IC50, Cathepsin V; type: biochemical
Chain of Cathepsin V (O60911 114-334, species assumed): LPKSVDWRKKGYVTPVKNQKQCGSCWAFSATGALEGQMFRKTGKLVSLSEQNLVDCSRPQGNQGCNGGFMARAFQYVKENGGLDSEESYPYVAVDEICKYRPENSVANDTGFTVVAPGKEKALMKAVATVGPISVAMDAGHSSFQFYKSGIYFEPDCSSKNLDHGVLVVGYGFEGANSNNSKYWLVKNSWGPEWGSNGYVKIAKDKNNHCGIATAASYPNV

[8] = system: HCT116 human colorectal carcinoma cells; assay: In vitro cytotoxicity (Cell Tox), alamarBlue; type: cell-based; settings: HCT-116, 96-hour continual compound exposure
Protocol: In Vitro Cytotoxicity (Cell Tox): Measured in HCT116 human colorectal carcinoma cells using alamarBlue™ as the assay endpoint. Compound cytotoxicity was measured over a period of 96-hour continual compound exposure.

Cathepsin K = Cathepsin K (Homo sapiens, UniProt P43235); assay: Cathepsin IC50, Cathepsin K; type: biochemical
Chain of Cathepsin K (P43235 115-329, species assumed): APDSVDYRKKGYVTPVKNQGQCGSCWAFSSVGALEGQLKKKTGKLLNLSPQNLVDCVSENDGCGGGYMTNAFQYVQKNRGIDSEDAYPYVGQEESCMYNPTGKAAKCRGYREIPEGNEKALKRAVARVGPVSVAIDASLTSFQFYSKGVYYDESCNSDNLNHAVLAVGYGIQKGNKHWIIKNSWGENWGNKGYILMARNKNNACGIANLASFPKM

FaSSIF solubility = type: physicochemical; settings: pH 6.5, simulated intestinal fluid in fasted state
Excerpt: as §1

[9] = system: Eurofins CEREP SafetyScreen44 panel; assay: Eurofins CEREP SafetyScreen44 panel profiling; type: binding; settings: single concentration of 10 μM; for Example 2 all targets except 5-HT2b
Excerpt: Aside from selectivity over other DUB enzymes, it is important for a drug to have low affinity for other targets, and pharmacological profiling may be performed against panels of targets to assess the potential for, and to minimise, potential off-target effects. Examples of targets for which the compounds of the present invention may be screened against are those of the industry standard Eurofins-Cerep SafetyScreen44 panel, which includes 44 targets as a representative selection of GPCR receptors, transporters, ion channels, nuclear receptors, and kinase and non-kinase enzymes. Preferably, compounds of the invention have insignificant affinity against targets of this screening panel. Further examples of targets for which the compounds of the present invention may be screened against are kinases of the Thermo Fisher SelectScreen kinase profiling panel, which includes 39 targets as a representative selection of kinase enzymes. Preferably, compounds of the invention have insignificant affinity against targets of this screening panel. Additionally, examples of a particular enzyme class for which the compounds of the present invention may be screened against are the cathepsins (e.g. cathepsin A, B, C, H, K, L, L2, S, V and Z). Preferably, compounds of the invention have good selectivity for USP30 over one or more of these enzymes. […]

TOM20 ubiquitylation = assay: TOM20-ubiquitylation assay; type: cell-based, human; settings: antimycin A/oligomycin mitophagy trigger
Excerpt: Human cell lines can be challenged with mitochondrial depolarizing agents (ionophores (eg. CCCP, valinomycin), mitochondrial complex inhibitors (oligomycin, antimycin A)) to induce ubiquitylation of TOM20, which is then further promoted in the presence of USP30 inhibitors. TOM20 ubiquitylation is subsequently assessed through western blotting of the cell lysates, with TOM20 ubiquitylation adduct detection possible due to an 8 kDa molecule weight increase for each molecule of ubiquitin added, resulting in laddering of a TOM20 immunoreactive band. TOM20-ubiquitylation levels can be quantified using chemiluminescence densitometry of laddered immunoreactive bands.

Row | SMILES | fraction unbound [1] | fraction unbound [2] | fold more potent against USP30 than against each of the cathepsins, at a minimum [3] | Selectivity preference for USP30 v cathepsins [3] | IC50 [4] | efflux ratio [5] | Papp A→B [5] | solubility (Turbidimetric solubility) | IC50 [6] | DUB selectivity preference for USP30 v 7 DUBs [7] | IC50 (Cathepsin V) | EC50 [8] | IC50 (Cathepsin K) | FaSSIF (μM) measured at pH 6.5 (FaSSIF solubility) | inhibition of binding or enzyme activity against all targets in the panel [9] | TOM20-Ub 1.5-fold gain EC1.5x (μM) (TOM20 ubiquitylation)
1 | COC[C@@H]1C[C@@H](NC(=O)c2ncc(-c3cccc(OC(F)(F)F)c3)o2)CN1C#N [Example 1, N-((3R,5S)-1-Cyano-5-(methoxymethyl)pyrrolidin-3-yl)-5-(3-(trifluoromethoxy)phenyl)oxazole-2-carboxamide] | 0.043 | 0.06 | ≥ 3300 fold | 3300-31600 | 16.5 to 158 µM | 5.4 | 18 ×10⁻⁶ cm/s | > 100 µM | 4.4 to 71.9 µM | 880-14380 | 132 µM | > 30 µM | 16.5 µM | 89 μM | less than 20% | 0.011 (n = 6) μM
2 | C[C@@H]1C[C@@H](NC(=O)c2ncc(-c3cccc(OC(F)(F)F)c3)o2)CN1C#N [Example 2, N-((3R,5R)-1-Cyano-5-methylpyrrolidin-3-yl)-5-(3-(trifluoromethoxy)phenyl)oxazole-2-carboxamide] | 0.028 | 0.05 | ≥ 1700 fold | 1700-6000 | ≥ 8.5 µM | 1.9 | 12 ×10⁻⁶ cm/s | > 100 µM | ≥ 4.7 µM | 940->20000 | > 30 µM | 24 µM | 9.8 µM | 25 μM | less than 20% | 0.009 (n = 4) μM
